# Data: patent US20070270418A1, “Inhibitors of P38 and Methods of Using the Same” (priority 2003, published 2007)
# Experiments:
# Type in all cases: biochemical
# [1] = molecular target: T1, p38α (Homo sapiens, UniProt Q16539); assay: p38 MAP Kinase assay, ATF2 phosphorylation (ELISA); details: 40 μM ATP
# T1 construct: p38 MAP Kinases are recombinant human full-length proteins with an amino-terminal GST fusion; GST (N); purchased Upstate (Charlottesville, Va.); host or cells: E. coli
# How it was run: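 ATF2 Thr69 phosphorylation was quantified by ELISA (HRP/TMB, 450 nm) after EDTA termination. Reactions: 6 ng GST-fused full-length human p38α, 15 min compound pre-incubation at room temperature, then 30 min at 37° C with 40 μM ATP and 1.25 μM GST-ATF2 (aa 19-96), pH 7.5 HEPES buffer.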
# [2] = molecular target: T2, JNK2α2 (Homo sapiens, UniProt P45984); assay: Kinase selectivity, ATF2 phosphorylation ELISA
# T2 construct: purchased Upstate (Charlottesville, Va.)
# Procedure: (§1) All kinases and the substrate ATF2 are acquired from Upstate (Charlottesville, Va.). p38 MAP Kinases are recombinant human full-length proteins with an amino-terminal GST fusion, expressed in and purified from E. coli. ATF2 is a GST fusion protein containing amino acids 19-96 of human ATF2 expressed in E. coli. All proteins were aliquoted and stored at −80° C.
# (§2) p38 MAP Kinase assays are performed using an assay buffer containing 25 mM HEPES, pH 7.5, 10 mM MgCl2, 2 mM DTT, 20 mM β-glycerophosphate, 0.1 mM Na3VO4, 40 μM ATP and 1.25 μM of ATF2, together with 6 ng of p38α protein, 12 ng p38β protein, 1.5 ng p38γ, or 0.4 ng JNK2α2. Compounds are serially diluted in DMSO and 2 μL of test compound at 25× final concentration is used. The vehicle control receives DMSO only. Test compounds are pre-incubated with 20 μl of enzyme in kinase buffer (25 mM HEPES, pH 7.5, 10 mM MgCl2, 2 mM DTT, 20 mM 3-glycerophosphate and 0.1 mM Na3VO4) at room temperature for 15 minutes. […] The reactions are incubated for 30 minutes at 37° C. and terminated by the addition of 18 μl of 200 mM EDTA. An ELISA method is used to measure the phosphorylation of ATF2 at Thr 69. High binding 96-well plates (Corning 3369) are coated with 50 μl of kinase reaction for 1 hour at 37° C. The coated plates are washed with 200 μl washing buffer (25 mM Tris HCl, pH 8.3, 192 mM glycine, 0.1% SDS and 0.05% Tween-20) three times. The plates are then washed three times with SuperBlock in TBS (Pierce, 37535). After blocking, plates are incubated with 50 μl of rabbit anti-phospho-ATF2 antibody (Cell Signaling, 9221 L, 1:500) for 30 minutes at 37° C. Plates are washed three times with washing buffer prior to incubation with 50 μl HRP-conjugated goat anti-rabbit antibody (Cell Signaling, 7074, 1:500) for 30 minutes at 37° C. Plates are then washed three times with washing buffer before incubation with 50 μl of Ultra TMB-ELISA (Pierce, 34028) for 8 minutes at room temperature. Finally, 50 μl of phosphoric acid (1 M) is added to stop reactions and plate absorbance is read at 450 nm on a SpectraMax 250 plate reader.
# (§3) A selectivity panel is used to test the cross-reactivity of compounds of the invention with the β and γ isoforms of p38 MAP kinase, Src^p60 and JNK2α2. The p38β, p38γ, and JNK2α2 assays are described in Example 4. The Src^p60 assay measures the ability of compounds to inhibit Src^p60-catalyzed phosphorylation of a peptide substrate.
# [3] = molecular target: T3, p38γ (Homo sapiens, UniProt P53778); assay: Kinase selectivity, ATF2 phosphorylation ELISA
# T3 construct: p38 MAP Kinases are recombinant human full-length proteins with an amino-terminal GST fusion; GST (N); purchased Upstate (Charlottesville, Va.); host or cells: E. coli
# T3 sequence (P53778 1-367): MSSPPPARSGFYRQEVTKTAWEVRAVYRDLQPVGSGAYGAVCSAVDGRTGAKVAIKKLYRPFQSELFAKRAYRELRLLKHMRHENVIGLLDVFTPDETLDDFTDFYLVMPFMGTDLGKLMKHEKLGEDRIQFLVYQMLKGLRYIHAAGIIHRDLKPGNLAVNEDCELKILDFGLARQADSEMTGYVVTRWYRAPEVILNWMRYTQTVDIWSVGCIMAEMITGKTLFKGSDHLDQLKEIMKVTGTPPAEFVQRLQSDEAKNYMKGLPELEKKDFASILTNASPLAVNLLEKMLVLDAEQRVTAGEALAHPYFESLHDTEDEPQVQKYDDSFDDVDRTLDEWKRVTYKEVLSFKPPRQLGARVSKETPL
# Procedure: as §1, §2, §3
# [4] = molecular target: T4, Src^p60 (Homo sapiens, UniProt P12931); assay: Src^p60 peptide phosphorylation, time resolved fluorescence
# T4 construct: purchased Upstate (Charlottesville, Va.)
# Procedure: as §3
# Compounds are serially diluted in DMSO and 1 μL of test compound at 25× final concentration is used. The vehicle control receives DMSO only. Test compounds are pre-incubated with 10 μL of water containing 5.3 units of Src^p60 enzyme (Upstate, Charlottesville, Va.) at room temperature for 15 minutes. […] The reactions are incubated for 1 hr at room temperature. Time resolved fluorescence is read at 665 and 615 nm using the Victor V program LANCE 615/665 on a Victor^2 V plate reader (Perkin Elmer Life Sciences).
# [5] = molecular target: T5, InsR (Homo sapiens, UniProt P06213); assay: Broad selectivity panel, 32P incorporation; details: 40 μM ATP, read-out: Percent inhibition InsR; for inhibition at 0.1 µM: 0.1 μM compound; for inhibition at 1 µM: 1 μM compound
# T5 construct: purchased Upstate (Charlottesville, Va.)
# Procedure: (§4) Various compounds of the present invention are screened against a panel of 24 additional kinases (Upstate, Charlottesville, Va.). Compounds are tested 0.1 μM and 1 μM in reactions containing 40 μM ATP. Incorporation of radiolabeled phosphate (^32P) into each kinase substrate is measured in the presence and absence of test compound.
# [6] = molecular target: T6, Lck (Homo sapiens, UniProt P06239); assay: Broad selectivity panel, 32P incorporation; details: 40 μM ATP, read-out: Percent inhibition Lck; for inhibition at 0.1 µM: 0.1 μM compound; for inhibition at 1 µM: 1 μM compound
# T6 construct: purchased Upstate (Charlottesville, Va.)
# Procedure: as §4
# [7] = molecular target: T7, Syk (Homo sapiens, UniProt P43405); assay: Broad selectivity panel, 32P incorporation; details: 40 μM ATP, read-out: Percent inhibition Syk; for inhibition at 0.1 µM: 0.1 μM compound; for inhibition at 1 µM: 1 μM compound
# T7 construct: purchased Upstate (Charlottesville, Va.)
# Procedure: as §4
# T1 sequence (Q16539 whole entry, the tested form may be a part): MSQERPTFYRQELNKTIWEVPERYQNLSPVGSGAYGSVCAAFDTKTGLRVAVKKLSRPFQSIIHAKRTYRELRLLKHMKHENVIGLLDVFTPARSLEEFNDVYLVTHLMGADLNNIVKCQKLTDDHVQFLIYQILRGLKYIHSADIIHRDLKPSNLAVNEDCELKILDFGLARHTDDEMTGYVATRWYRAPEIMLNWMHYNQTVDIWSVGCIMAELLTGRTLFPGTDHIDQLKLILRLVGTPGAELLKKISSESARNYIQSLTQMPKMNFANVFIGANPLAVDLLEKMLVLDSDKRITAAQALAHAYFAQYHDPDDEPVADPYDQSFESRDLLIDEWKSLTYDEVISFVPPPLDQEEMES
# T5 sequence (P06213 28-1382, species assumed): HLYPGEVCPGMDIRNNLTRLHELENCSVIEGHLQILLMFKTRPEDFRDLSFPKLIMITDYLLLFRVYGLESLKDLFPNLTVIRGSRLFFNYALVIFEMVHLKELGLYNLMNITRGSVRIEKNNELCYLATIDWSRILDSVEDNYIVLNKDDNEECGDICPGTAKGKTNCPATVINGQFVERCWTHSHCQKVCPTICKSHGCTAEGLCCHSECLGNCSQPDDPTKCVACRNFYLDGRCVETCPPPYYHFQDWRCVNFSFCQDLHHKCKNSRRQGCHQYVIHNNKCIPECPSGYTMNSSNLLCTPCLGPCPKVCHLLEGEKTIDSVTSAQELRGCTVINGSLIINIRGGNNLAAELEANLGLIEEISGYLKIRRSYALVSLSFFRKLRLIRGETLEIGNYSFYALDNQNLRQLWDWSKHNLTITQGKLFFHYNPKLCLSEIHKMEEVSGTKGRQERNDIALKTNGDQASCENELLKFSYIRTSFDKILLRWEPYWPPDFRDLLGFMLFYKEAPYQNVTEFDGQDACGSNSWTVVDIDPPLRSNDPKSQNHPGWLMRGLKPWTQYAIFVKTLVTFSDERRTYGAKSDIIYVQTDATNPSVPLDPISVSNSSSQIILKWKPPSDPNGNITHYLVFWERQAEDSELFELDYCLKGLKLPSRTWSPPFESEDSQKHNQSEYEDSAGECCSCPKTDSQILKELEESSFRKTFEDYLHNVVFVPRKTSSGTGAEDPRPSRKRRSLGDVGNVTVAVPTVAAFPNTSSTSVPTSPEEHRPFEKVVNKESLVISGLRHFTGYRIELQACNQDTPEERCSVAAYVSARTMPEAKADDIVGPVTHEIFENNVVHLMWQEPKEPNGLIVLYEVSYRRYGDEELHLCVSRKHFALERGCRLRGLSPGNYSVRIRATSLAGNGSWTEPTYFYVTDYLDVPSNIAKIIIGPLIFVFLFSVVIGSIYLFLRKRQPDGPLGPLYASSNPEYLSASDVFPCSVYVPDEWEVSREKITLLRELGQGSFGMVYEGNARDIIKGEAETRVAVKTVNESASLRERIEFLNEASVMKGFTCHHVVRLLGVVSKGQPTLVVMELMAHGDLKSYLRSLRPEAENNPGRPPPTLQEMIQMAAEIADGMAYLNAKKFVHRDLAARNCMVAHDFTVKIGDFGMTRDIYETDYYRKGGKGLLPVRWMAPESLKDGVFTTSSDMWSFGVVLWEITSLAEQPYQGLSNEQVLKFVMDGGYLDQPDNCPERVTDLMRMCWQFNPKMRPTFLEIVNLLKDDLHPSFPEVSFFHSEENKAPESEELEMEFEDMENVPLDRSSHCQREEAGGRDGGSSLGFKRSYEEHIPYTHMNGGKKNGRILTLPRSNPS
# T2 sequence (P45984 whole entry): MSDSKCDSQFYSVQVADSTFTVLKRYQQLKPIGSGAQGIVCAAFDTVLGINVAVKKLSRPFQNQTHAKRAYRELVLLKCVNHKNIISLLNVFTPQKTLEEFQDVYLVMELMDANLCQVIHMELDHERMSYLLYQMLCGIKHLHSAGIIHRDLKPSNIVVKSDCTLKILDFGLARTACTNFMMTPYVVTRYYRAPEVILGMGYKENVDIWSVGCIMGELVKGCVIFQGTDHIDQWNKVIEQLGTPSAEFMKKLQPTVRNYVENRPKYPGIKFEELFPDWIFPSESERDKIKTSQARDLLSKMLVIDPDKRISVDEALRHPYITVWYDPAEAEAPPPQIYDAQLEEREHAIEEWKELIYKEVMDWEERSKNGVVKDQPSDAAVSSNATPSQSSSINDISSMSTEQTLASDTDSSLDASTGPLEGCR
# T6 sequence (P06239 whole entry, species assumed): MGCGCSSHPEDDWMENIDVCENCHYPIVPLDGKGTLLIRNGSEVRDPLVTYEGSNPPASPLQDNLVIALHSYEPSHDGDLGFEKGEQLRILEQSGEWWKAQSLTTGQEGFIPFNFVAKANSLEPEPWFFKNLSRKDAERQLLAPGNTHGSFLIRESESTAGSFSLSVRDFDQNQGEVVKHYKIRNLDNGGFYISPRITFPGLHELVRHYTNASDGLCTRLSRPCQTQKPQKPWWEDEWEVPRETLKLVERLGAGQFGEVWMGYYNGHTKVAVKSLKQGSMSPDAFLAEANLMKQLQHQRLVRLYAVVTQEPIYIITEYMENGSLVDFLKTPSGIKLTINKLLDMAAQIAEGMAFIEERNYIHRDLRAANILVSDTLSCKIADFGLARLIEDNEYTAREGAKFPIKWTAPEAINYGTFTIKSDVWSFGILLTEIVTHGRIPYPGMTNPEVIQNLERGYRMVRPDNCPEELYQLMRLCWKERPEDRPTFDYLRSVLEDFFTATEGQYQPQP
# T4 sequence (P12931 whole entry): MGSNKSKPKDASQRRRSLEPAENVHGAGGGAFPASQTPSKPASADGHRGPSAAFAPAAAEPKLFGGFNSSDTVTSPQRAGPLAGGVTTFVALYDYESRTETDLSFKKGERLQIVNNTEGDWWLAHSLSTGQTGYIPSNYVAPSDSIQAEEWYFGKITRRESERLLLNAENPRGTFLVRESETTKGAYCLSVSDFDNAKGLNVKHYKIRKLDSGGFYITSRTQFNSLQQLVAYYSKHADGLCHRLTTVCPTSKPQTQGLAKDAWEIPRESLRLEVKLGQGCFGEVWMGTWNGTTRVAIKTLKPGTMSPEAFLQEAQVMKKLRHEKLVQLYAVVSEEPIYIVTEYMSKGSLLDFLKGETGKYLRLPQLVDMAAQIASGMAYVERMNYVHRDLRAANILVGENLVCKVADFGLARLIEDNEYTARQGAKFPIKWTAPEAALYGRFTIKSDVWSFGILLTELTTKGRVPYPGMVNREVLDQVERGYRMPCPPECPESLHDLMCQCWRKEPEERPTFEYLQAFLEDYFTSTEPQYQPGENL
Compound,IC50 [1] [nM],IC50 [2] [nM],IC50 [3] [nM],IC50 [4] [nM],inhibition at 0.1 µM [5] [%],inhibition at 1 µM [5] [%],inhibition at 0.1 µM [6] [%],inhibition at 1 µM [6] [%],inhibition at 0.1 µM [7] [%],inhibition at 1 µM [7] [%]
CS(=O)(=O)N1CCC(Nc2nccc(-c3c(-c4ccc(F)cc4)nc4occn34)n2)CC1 [CCLXXIX],0.71,23.3,> 100000,> 64000,9,2,2,-3,3,10
CC(=O)N1CCC(Nc2nccc(-c3c(-c4ccc(F)cc4)nc4occn34)n2)CC1 [CCLXXVIII],2.38,,,,-28,-4,5,31,,
CN1[C@@H]2CC[C@H]1C[C@@H](Nc1nccc(-c3c(-c4ccc(F)cc4)nc4occn34)n1)C2 [CCLXXXI],4.91,762,> 100000,> 9030,-7,14,26,35,17,33
Fc1ccc(-c2nc3occn3c2-c2ccnc(NC3CCNCC3)n2)cc1 [CCLXXX],13.1,,,,,,-3,27,5,40
CN(C)CC(C)(C)CNc1nccc(-c2c(-c3ccc(F)cc3)nc3occn23)n1 [CXIX],17,,,,8,3,,,35,33
Fc1ccc(-c2nc3occn3c2-c2ccnc(N[C@@H]3CN4CCC3CC4)n2)cc1 [LXXI],27.7,1590,> 519000,12900,-25,12,8,17,-5,33
Fc1ccc(-c2nc3occn3c2-c2ccnc(NC3CN4CCC3CC4)n2)cc1 (centres unmarked) [LXXXIV],15,2260,> 81300,> 29500,,,,,,
Fc1ccc(-c2nc3occn3c2-c2ccnc(N[C@H]3CN4CCC3CC4)n2)cc1 [LXXXVII],8.7,1040,59500,25900,-8,8,-15,18,17,23
